Assays:
Assay in all cases: relative viability (nuclei count vs DMSO), 5 days (fraction); higher = more cells survive
[1] = compound: CN(C)CC1=CC(=CC=C1)N=C(C2=CC=CC=C2)C3=C(NC4=C3C=CC(=C4)C(=O)N(C)C)O + COc1cc2c(Oc3ccc(NC(=O)C4(C(=O)Nc5ccc(F)cc5)CC4)cc3F)ccnc2cc1OCCCN1CCOCC1 [Foretinib] (partner 0.25 µM)
Outline: (§1)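 Lung cancer cell lines were pin-tool dosed in 1536-well plates on the day after seeding, with either a lone drug or a fixed anchor-drug dose plus five library-drug doses (not always all listed) in √10 steps. Nuclei were counted on 4× images after 5 days. Relative viability is the ratio of treated-well to vehicle-well nuclei counts, with each value a median of duplicate plates.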

[2] = compound: CN(C)CC1=CC(=CC=C1)N=C(C2=CC=CC=C2)C3=C(NC4=C3C=CC(=C4)C(=O)N(C)C)O + CC(C)C[C@H](NC(=O)[C@H](Cc1ccccc1)NC(=O)c1cnccn1)B(O)O [Bortezomib] (partner 0.002 µM)
Outline: as §1

[3] = compound: CN(C)CC1=CC(=CC=C1)N=C(C2=CC=CC=C2)C3=C(NC4=C3C=CC(=C4)C(=O)N(C)C)O + CC(=O)c1c(C)c2cnc(Nc3ccc(N4CCNCC4)cn3)nc2n(C2CCCC2)c1=O [Palbociclib] (partner 0.5 µM)
Outline: as §1

[4] = compound: CN(C)CC1=CC(=CC=C1)N=C(C2=CC=CC=C2)C3=C(NC4=C3C=CC(=C4)C(=O)N(C)C)O + CS(=O)(=O)N1CCN(Cc2cc3nc(-c4cccc5[nH]ncc45)nc(N4CCOCC4)c3s2)CC1 [Pictilisib] (partner 1 µM)
Outline: as §1

Cell Line	relative viability ([1]; first compound 0.08 µM)	relative viability ([1]; first compound 0.253 µM)	relative viability ([1]; first compound 0.8 µM)	relative viability ([1]; first compound 2.53 µM)	relative viability ([1]; first compound 8 µM)	relative viability ([2]; first compound 0.08 µM)	relative viability ([2]; first compound 0.253 µM)	relative viability ([2]; first compound 0.8 µM)	relative viability ([2]; first compound 2.53 µM)	relative viability ([2]; first compound 8 µM)	relative viability ([3]; first compound 0.08 µM)	relative viability ([3]; first compound 0.253 µM)	relative viability ([3]; first compound 0.8 µM)	relative viability ([3]; first compound 2.53 µM)	relative viability ([3]; first compound 8 µM)	relative viability ([4]; first compound 0.08 µM)	relative viability ([4]; first compound 0.253 µM)	relative viability ([4]; first compound 0.8 µM)	relative viability ([4]; first compound 2.53 µM)	relative viability ([4]; first compound 8 µM)
LCLC-97TM1	0.958	0.821	0.822	0.917	0.975	0.528	0.942	0.504	0.605	1.35	0.199	0.224	0.258	0.254	0.299	0.174	0.218	0.157	0.224	0.305
LCLC-103H	0.746	0.826	0.825	0.841	0.508	1.14	1.09	0.976	0.91	0.979	0.255	0.425	0.558	0.449	0.458	0.595	0.671	0.616	0.586	0.593
LOU-NH91	0.931	0.882	0.732	0.917	0.936	0.493	0.472	0.447	0.533	0.472	0.57	0.53	0.524	0.52	0.598	0.532	0.512	0.481	0.511	0.512
LU99A	0.787	0.842	0.926	0.809	0.781	1.13	1.21	1.15	1.09	0.911	0.392	0.417	0.457	0.401	0.351	0.322	0.33	0.366	0.301	0.305
LXF-289	0.966	0.9	1.03	0.93	0.929	1	0.888	0.993	0.927	0.939	0.603	0.544	0.606	0.547	0.568	0.778	0.793	0.794	0.706	0.731
NCI-H23	1.1	1.1	0.622	1.18	0.81	1.08	1.02	1.18	0.951	0.833		0.655	0.556	0.579	0.478	0.45	0.42	0.565	0.512	0.475
NCI-H322M	0.887	1.02	0.831	0.831	0.666	1.25	1.14	1.19	1.16	1.26	0.448	0.48	0.45	0.442	0.432	0.499	0.742	0.388	0.496	0.701
NCI-H441	1.11	1.01	1.24	1.17	0.873	0.572	0.449	0.538	0.511	0.331	0.217	0.231	0.2	0.198	0.247	0.451	0.471	0.484	0.481	0.335
NCI-H460	0.995	1.07	0.994	0.928	1.04	1.22	1.05	1.1	0.974	1.06	0.224	0.221	0.211	0.132	0.237	0.366	0.295	0.311	0.313	0.321
NCI-H520	0.799	0.789	0.695	0.712	0.649	0.593	0.455	0.651	0.658	0.552	0.234	0.2	0.214	0.195	0.173	0.271	0.294	0.316	0.215	0.221
NCI-H647	1.26	1.1	1.12	1.15	1	1.02	1.01	1.01	0.846	0.776	0.431	0.433	0.471	0.45	0.382	0.476	0.475	0.409	0.364	0.413
NCI-H650	1.16	1.08	0.988	0.846	1.07	0.695	0.993	0.767	0.717	0.661	0.319	0.371	0.387	0.355	0.364	1	0.789	0.955	0.768	0.766
NCI-H661	0.996	0.963	0.957	0.966	0.883	0.897	0.707	0.918	0.873	0.607	0.435	0.381	0.391	0.392	0.429	0.4	0.465	0.387	0.498	0.657
NCI-H727	0.896	0.877	0.804	0.942	0.664	0.872	0.764	0.786	0.739	0.764		0.617	0.593	0.391	0.74	0.515	0.32	0.397	0.47	0.572
NCI-H838	1.13	0.969	1	0.888	0.938	0.792	0.8	0.916	0.757	0.73	0.253	0.243	0.199	0.198	0.177	0.529	0.42	0.469	0.397	0.429
NCI-H1355	0.684	1.05	0.922	0.919	1.02	1.24	1.26	1.11	1.28	1.08	0.425	0.399	0.305	0.4	0.4	0.495	0.507	0.329	0.402	0.341

Cell Line	relative viability ([1]; first compound 0.08 µM)	relative viability ([1]; first compound 0.253 µM)	relative viability ([1]; first compound 0.8 µM)	relative viability ([1]; first compound 2.53 µM)	relative viability ([1]; first compound 8 µM)	relative viability ([2]; first compound 0.08 µM)	relative viability ([2]; first compound 0.253 µM)	relative viability ([2]; first compound 0.8 µM)	relative viability ([2]; first compound 2.53 µM)	relative viability ([2]; first compound 8 µM)	relative viability ([3]; first compound 0.08 µM)	relative viability ([3]; first compound 0.253 µM)	relative viability ([3]; first compound 0.8 µM)	relative viability ([3]; first compound 2.53 µM)	relative viability ([3]; first compound 8 µM)	relative viability ([4]; first compound 0.08 µM)	relative viability ([4]; first compound 0.253 µM)	relative viability ([4]; first compound 0.8 µM)	relative viability ([4]; first compound 2.53 µM)	relative viability ([4]; first compound 8 µM)
NCI-H1437	1.3	1.22	1.35	1.27	1.33	0.462	0.63	0.615	0.482	0.56	0.339	0.365	0.317	0.331	0.368	0.465	0.49	0.489	0.453	0.44
NCI-H1650	1.17	1.12	1.08	1.05	0.977	0.181	0.22	0.231	0.202	0.222	0.36	0.399	0.331	0.314	0.364	0.591	0.622	0.531	0.625	0.54
NCI-H1651	0.865	0.777	0.87	0.735	0.816	0.959	0.984	0.957	0.794	0.932	0.526	0.505	0.554	0.521	0.494	0.685	0.647	0.636	0.474	0.608
NCI-H1666	1.03	1.01	1	1	1.11	0.865	0.945	0.989	0.976	0.816	0.617	0.652	0.684	0.681	0.73	0.507	0.528	0.4	0.486	0.545
NCI-H1734	0.765	0.839	0.819	0.771	0.807	0.954	0.868	0.92	0.815	0.78	0.39	0.353	0.346	0.31	0.31	0.479	0.461	0.408	0.402	0.471
NCI-H1755	0.941	0.903	0.989	0.874	0.918	0.888	0.932	0.93	0.817	0.972	0.438	0.45	0.426	0.452	0.439	0.46	0.433	0.349	0.418	0.381
NCI-H1915	1.03	1.06	1.13	1.12	1.05	0.976	1.02	0.985	0.923	0.956	0.533	0.528	0.555	0.537	0.48	0.911	0.972	0.92	0.901	0.918
NCI-H1975	0.863	0.984	0.888	0.88	0.78	0.444	0.381	0.319	0.326	0.381	0.646	0.398	0.456	0.574	0.339	0.306	0.324	0.245	0.257	0.275
NCI-H1993	0.721	0.811	0.81	0.824	0.935	1.04	1.11	0.748	1.22	1.36	0.63	0.615		0.75	0.592	0.826	0.86	0.98	0.799	0.768
NCI-H2009	1.17	1.22	1.21	1.23	1.11	1.17	1.01	1.21	0.919	0.839	0.165	0.236	0.258	0.198	0.192	0.792	0.766	0.795	0.803	0.541
NCI-H2023	0.766	0.731	0.785	0.737	0.602	1.3	1.05	0.901	0.647	0.731	0.332	0.325	0.357	0.289	0.36	0.263	0.238	0.222	0.177	0.21
NCI-H2085	1	0.865	1.15	1.13	0.954	1.07	0.953	0.993	1.01	1.07	0.452	0.492	0.476	0.5	0.559	0.386	0.479	0.414	0.448	0.493
NCI-H2087	1	1.07	1.19	1.09	0.955	0.656	0.785	0.986	0.816	1.03	0.233	0.236	0.214	0.289	0.263	0.963	0.786	0.926	0.848	0.806
NCI-H2126	1.1	1.13	1.17	1.16	1.02	1.14	1.08	1.13	1.07	1.1	0.373	0.362	0.286	0.363	0.36	0.451	0.518	0.451	0.541	0.507
NCI-H2228	0.946	0.904	0.77	0.88	0.708	1.09	1.15	1.11	0.779	0.94	0.825	0.602	0.715	0.673	0.77	0.566	0.411	0.545	0.395	0.349
NCI-H2347	0.969	1.02	0.809	1.11	1	0.828	1.22	0.83	1.17	1.12	0.428	0.389	0.445	0.456	0.518	0.868	0.637	0.697	0.663	0.6
